From patent US20090258863A1, “Method for treatment of amyotrophic lateral sclerosis using talampanel” (priority 2008, published 2009)

How the values were obtained:
GABA receptor complex = details: Tarnawa et al. 1989; cited from earlier work
motor neurons [1] = details: organotypic spinal cord slice model; cited from earlier work
ALS patients = details: cited from earlier work
subjects with ALS [2] = assay: Example 2: another clinical trial according to the procedure of Example 1; format: in vivo, human
Experimental: (§1) A subject is assessed for study eligibility at a screening visit (one to 4 weeks prior to baseline). Subjects who are found eligible to participate in the study are randomized in a 2:1:2 ratio into one of the following three treatment groups based on a randomization scheme with blocks stratified by center: • 1. 50 mg (25 mg capsule×2) talampanel t.i.d. (150 mg daily) • 2. 25 mg (12.5 mg capsule×2) talampanel t.i.d. (75 mg daily) • 3. Placebo
(§2) After undergoing randomization subjects receive their first dose of study treatment on site. There are two possible escalation periods to reach maximal dose of 6 capsules per day, as follows: • Screening Period Up to 4 weeks but not less than 1 week. The period between screening visit and baseline visit. During this time period all relevant data for the assessment of subjects eligibility should be collected and reviewed i.e. lab results, ECG, medical history etc. • First Escalation Period: A period of 4 to 6 weeks, following screening period. This period starts at baseline visit, following randomization; • Second Escalation Period: A period of 2 weeks, this period starts at week 10 visit and ends at week 12 visit. • Maintenance Period: A time period of 46 to 48 weeks, following the first escalation period, starting after reaching maximal achieved dose in the first escalation period. During this period oral administration of talampanel 25 mg t.i.d., 50 mg t.i.d. (or maximal achieved dose) or matching oral placebo is maintained.
(§3) The first escalation period is a period of 4-6 weeks, following randomization. The dose escalation plan for the 25 mg and 50 mg t.i.d. dose levels, respectively, is as follows: • First week: from baseline visit to week 1 (telephone visit): Three capsules (37.5 mg or 75 mg daily) one each a.m., mid-day and p.m. dosing. • Second week: from week 1 (telephone visit) to week 2 (telephone visit): Four capsules (50 mg or 100 mg daily) one each a.m. & mid-day, two at p.m. dosing. • Third week: from week 2 (telephone visit) to week 3 (telephone visit): Five capsules (62.5 mg or 125 mg daily) two at a.m. one in mid-day and two at p.m. dosing. • Fourth week: from week 3 (telephone visit) to week 4 on site visit: Six capsules (75 mg or 150 mg daily) two at each a.m., mid-day and p.m. dosing.
(§4) At in-clinic visits the following are assessed: • Revised ALS Functional Rating Scale (ALSFRS-R) (screening, baseline, weeks 4-6, 12, 26, 40, 52/ET and unscheduled) • Slow VC (screening, baseline, weeks 4-6, 12, 26, 40, 52/ET and unscheduled) • Manual Muscle Testing (MMT) (baseline, weeks 12, 26, 40, 52/ET and unscheduled) • ALS-Specific Quality of life (ALSSQoL) scale (baseline, weeks 26, 52/ET) [US and Canada Only] • EuroQol-5 Dimensions (EQ-5D) health outcomes scale (baseline, weeks 4-6, 12, 26, 40 and 52/ET) • Health Care Resource Utilization Questionnaire for ALS (baseline, weeks 4-6, 12, 26, 40, 52/ET) • Caregiver burden questionnaire, Zarit Burden Interview (ZBI) [caregiver] (Baseline, weeks 12, 26, 40, 52/ET) • Laboratory (screening, baseline, weeks 4-6, 12, 26, 40, 52/ET and unscheduled) • ECG (screening, baseline (3 times), weeks 4-6, 12, 26, 40, 52/ET and unscheduled) • Physical examination (screening, baseline, weeks 4-6, 12, 26, 40 and 52/ET and unscheduled) • Vital signs and weights (screening, baseline, weeks 4-6, 12, 26, 40 and 52/ET and unscheduled) • Check of concomitant medications, AEs and compliance • Pharmacokinetics (PK): Safety Pharmacokinetics (PK) blood samples are taken after at least 3 days on the maximal achieved dose at end of first escalation period at week 4-6 (pre-dose, anytime in the range of 0.5-2 hours post-dose and anytime in the range of 2-4 hours post dose with at least 1 hour difference between the 2 post dose samples) and at week 12 (pre-dose, anytime in the range of 0.5-2 hours post-dose and anytime in the range of 2-4 hours post dose with at least 1 hour difference between the 2 post dose samples). […]

subjects with ALS [3] = assay: Example 3: another clinical trial according to the procedure of Example 1; format: in vivo, human
Experimental: as §1, §2, §3, §4

subjects with ALS [4] = assay: Example 4: another clinical trial according to the procedure of Example 1; format: in vivo, human
Experimental: as §1, §2, §3, §4

ALS = assay: Pilot study of talampanel in ALS, 50 mg t.i.d. vs placebo; format: in vivo, human; details: placebo −10.2, p=0.08, positive trend
Experimental: A pilot study of talampanel in ALS compared 50 mg t.i.d of talampanel to placebo. The study found a positive trend in the ALSFRS scores of talampanel treated relative to placebo (average score −7.1 vs. −10.2, p=0.08).

[5] = tested on: N-acetyltransferse NAT2 isozymes; assay: Previous clinical trial: N-acetylation of talampanel by NAT2; format: in vivo, human
Text: N-acetylation was identified as one metabolic pathway of talampanel, catalyzed by N-acetyltransferse NAT2 isozymes. A genetic polymorphism in the NAT2 gene affects the acetylation rate. […] The three common slow acetylator alleles identified are NAT2*5A, NAT2*6A and NAT2*7A. The NAT2*5 alleles have the greatest reductions in metabolic activation while NAT2*6 alleles have more moderate reductions and NAT2*7 alleles have the smallest, but yet significant, reductions. The frequency of NAT2 slow acetylators (about 2-10% in Asian, 60-70% in Caucasians, 30-40% in Africans) and NAT2 fast acetylators (about 40-60% in Asian, 3-15% in Caucasian, 10-25% in Africans) varies markedly with ethnicity.

[6] = human, in vivo
Experimental: (§5) In this study, the daily dose is increased by 12.5 mg or 25 mg daily each week to reach 75 mg or 150 mg daily (25 mg t.i.d. or 50 mg t.i.d.) respectively, at the 4th to 6th week or at the 11th to 12th week if needed.

[7] = tested on: AMPA subtype of glutamate excitatory amino acid receptors; details: AMPA antagonist; cited from earlier work
[8] = Prior clinical trials with talampanel: safety and tolerability; details: previous clinical trials
Experimental: as §5

mouse model of ALS = details: Van Damme et al. 2003; cited from earlier work
motor neurons [9] = details: in vitro; cited from earlier work
[10] = 50 mg t.i.d., statistically significant
[11] = talampanel group, dose not stated, vs placebo

Compound: CC1=NN=C(c2ccc(N)cc2)c2cc3c(cc2C1)OCO3 [GYKI-52466]
- 1,4-benzodiazepine (diazepam-like) activity at the GABA receptor complex (GABA receptor complex): no classical 1,4-benzodiazepine (that is, “diazepam-like”) activity

Compound: CC1(C)O[C@@H]2[C@@H](CO[C@@]3(COS(N)(=O)=O)OC(C)(C)O[C@@H]23)O1 [topiramate]
- protection of motor neurons (motor neurons [1]): protected motor neurons
- benefit in clinical trial in ALS patients (ALS patients; Cudkowicz et al. 2003): no benefit
- adverse events in patients (ALS patients; including dramatic weight loss): significant adverse events

Compound: CC(=O)N1N=C(c2ccc(N)cc2)c2cc3c(cc2C[C@H]1C)OCO3 [talampanel]
- decrease in the slopes of ALSFRS-R as compared to placebo (subjects with ALS [2]; 25 mg t.i.d.): 20%
- risk of either death, tracheostomy, or permanent assisted ventilation (subjects with ALS [2]; 25 mg t.i.d.): reduction
- decrease in the change in ALSFRS-R from baseline to LOV in comparison to placebo (subjects with ALS [2]; 50 mg t.i.d.): 20%
- risk of either death, tracheostomy, or permanent assisted ventilation (subjects with ALS [2]; 50 mg t.i.d.): decrease
- adjusted mean change from baseline in MMT across visits (subjects with ALS [2]; 50 mg t.i.d. vs placebo): decrease
- adjusted mean change from baseline in Slow VC across visits (subjects with ALS [2]; 50 mg t.i.d. vs placebo): decrease
- slopes of MMT (subjects with ALS [2]; 50 mg t.i.d. vs placebo): decrease
- slopes of Slow VC (subjects with ALS [2]; 50 mg t.i.d. vs placebo): decrease
- decrease in the slopes of ALSFRS-R as compared to placebo (subjects with ALS [2]; [10]): 20%
- change in MMT from baseline to LOV (subjects with ALS [2]; [11]): decrease
- decrease in the slopes of ALSFRS-R as compared to placebo (subjects with ALS [3]; 25 mg t.i.d.): 25%
- risk of either death, tracheostomy, or permanent assisted ventilation (subjects with ALS [3]; 25 mg t.i.d.): reduction
- adjusted mean change from baseline in MMT across visits (subjects with ALS [3]; 50 mg t.i.d vs placebo): decrease
- decrease in the change in ALSFRS-R from baseline to LOV in comparison to placebo (subjects with ALS [3]; 50 mg t.i.d.): 25%
- risk of either death, tracheostomy, or permanent assisted ventilation (subjects with ALS [3]; 50 mg t.i.d.): decrease
- adjusted mean change from baseline in Slow VC across visits (subjects with ALS [3]; 50 mg t.i.d. vs placebo): decrease
- slopes of MMT (subjects with ALS [3]; 50 mg t.i.d. vs placebo): decrease
- slopes of Slow VC (subjects with ALS [3]; 50 mg t.i.d. vs placebo): decrease
- decrease in the slopes of ALSFRS-R as compared to placebo (subjects with ALS [3]; [10]): 25%
- change in MMT from baseline to LOV (subjects with ALS [3]; [11]): decrease
- decrease in the slopes of ALSFRS-R as compared to placebo (subjects with ALS [4]; 25 mg t.i.d.): 30%
- risk of either death, tracheostomy, or permanent assisted ventilation (subjects with ALS [4]; 25 mg t.i.d.): reduction
- decrease in the change in ALSFRS-R from baseline to LOV in comparison to placebo (subjects with ALS [4]; 50 mg t.i.d.): 30%
- risk of either death, tracheostomy, or permanent assisted ventilation (subjects with ALS [4]; 50 mg t.i.d.): decrease
- adjusted mean change from baseline in MMT across visits (subjects with ALS [4]; 50 mg t.i.d. vs placebo): decrease
- adjusted mean change from baseline in Slow VC across visits (subjects with ALS [4]; 50 mg t.i.d. vs placebo): decrease
- slopes of MMT (subjects with ALS [4]; 50 mg t.i.d. vs placebo): decrease
- slopes of Slow VC (subjects with ALS [4]; 50 mg t.i.d. vs placebo): decrease
- decrease in the slopes of ALSFRS-R as compared to placebo (subjects with ALS [4]; [10]): 30%
- change in MMT from baseline to LOV (subjects with ALS [4]; [11]): decrease
- ALSFRS scores, average score (ALS): −7.1
- N-acetylation dependence on NAT2 activity ([5]; metabolic pathway): highly dependent on NAT2 activity
- safety and tolerability of the dose [6]: safe and tolerated
- potency relative to GYKI-52466 [7]: more potent
- adverse events when the dose is gradually increased over time [8]: reduced

Compound: NS(=O)(=O)c1cccc2c1c([N+](=O)[O-])cc1nc(O)c(O)nc12 [NBQX]
- prolonged survival in ALS mice (mouse model of ALS): 14 days
- kainate induced calcium entry into motor neurons (motor neurons [9]): blocked

Compound: CC(=O)Nc1ccc(C2=NN(C(C)=O)C(C)Cc3cc4c(cc32)OCO4)cc1 (stereo not drawn) [NAC talampanel]
- measurable levels of NAC talampanel by acetylator status ([5]; human, in vivo): seen primarily in fast acetylator subjects, but not in slow acetylators
